{"source": "patent US8921362B2", "about": "“6,7-dialkoxy quinazoline derivatives and methods of treating drug resistant and other tumors” (Natco Pharma Limited, priority 2008, dated 2014)", "assay_in_all_cases": "KinomeScan", "assay_type_in_all_cases": "binding", "details_in_all_cases": "read-out: % Ctrl @ 10000 nM", "key": {"CAMK2D": {"molecular_target": "T1, CAMK2D (Homo sapiens, UniProt Q13557)", "T1 construct": "host or cells: E. coli host derived from BL21", "outline": "(§1)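 Lysates from phage-infected E. coli (32° C., shaking until lysis) were filtered and exposed to biotin-blocked ligand beads together with test compound. Eluted phage was counted by quantitative PCR.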"}, "PRKCE": {"molecular_target": "T2, PRKCE (Homo sapiens, UniProt Q02156)", "T2 construct": "host or cells: T7 phage in E. coli host derived from BL21", "outline": "as §1"}, "AMPK-alpha1": {"molecular_target": "T3, AMPK-alpha1 (Homo sapiens, UniProt Q13131)", "T3 construct": "host or cells: E. coli (BL21-derived), T7 phage lysate", "outline": "as §1"}, "FGFR4": {"molecular_target": "T4, FGFR4 (Homo sapiens, UniProt P22455)", "T4 construct": "host or cells: T7 phage in E. coli host derived from BL21", "outline": "as §1"}, "[1]": {"molecular_target": "T5, JAK1(JH2domain-pseudokinase) (Homo sapiens, UniProt P23458)", "T5 construct": "JAK1(JH2domain-pseudokinase); host or cells: T7 phage grown in E. coli host derived from BL21", "T5 sequence (P23458 583-855 limits assumed)": "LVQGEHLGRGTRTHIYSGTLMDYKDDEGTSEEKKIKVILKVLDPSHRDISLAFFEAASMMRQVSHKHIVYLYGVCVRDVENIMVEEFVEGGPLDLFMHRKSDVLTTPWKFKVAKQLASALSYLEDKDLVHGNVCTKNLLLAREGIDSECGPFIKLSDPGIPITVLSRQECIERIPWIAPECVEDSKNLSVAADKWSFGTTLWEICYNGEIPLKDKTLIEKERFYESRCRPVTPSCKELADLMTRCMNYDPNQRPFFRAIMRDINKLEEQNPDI", "outline": "as §1"}, "ROCK2": {"molecular_target": "T6, ROCK2 (Homo sapiens, UniProt O75116)", "T6 construct": "host or cells: E. coli host derived from BL21, T7 phage display", "outline": "as §1"}, "TAOK3": {"molecular_target": "T7, TAOK3 (Homo sapiens, UniProt Q9H2K8)", "T7 construct": "host or cells: T7 phage grown in E. coli (BL21-derived)", "outline": "as §1"}, "CSF1R": {"molecular_target": "T8, CSF1R (Homo sapiens, UniProt P07333)", "T8 construct": "host or cells: T7 phage in E. coli host derived from BL21", "T8 sequence (P07333 20-972)": "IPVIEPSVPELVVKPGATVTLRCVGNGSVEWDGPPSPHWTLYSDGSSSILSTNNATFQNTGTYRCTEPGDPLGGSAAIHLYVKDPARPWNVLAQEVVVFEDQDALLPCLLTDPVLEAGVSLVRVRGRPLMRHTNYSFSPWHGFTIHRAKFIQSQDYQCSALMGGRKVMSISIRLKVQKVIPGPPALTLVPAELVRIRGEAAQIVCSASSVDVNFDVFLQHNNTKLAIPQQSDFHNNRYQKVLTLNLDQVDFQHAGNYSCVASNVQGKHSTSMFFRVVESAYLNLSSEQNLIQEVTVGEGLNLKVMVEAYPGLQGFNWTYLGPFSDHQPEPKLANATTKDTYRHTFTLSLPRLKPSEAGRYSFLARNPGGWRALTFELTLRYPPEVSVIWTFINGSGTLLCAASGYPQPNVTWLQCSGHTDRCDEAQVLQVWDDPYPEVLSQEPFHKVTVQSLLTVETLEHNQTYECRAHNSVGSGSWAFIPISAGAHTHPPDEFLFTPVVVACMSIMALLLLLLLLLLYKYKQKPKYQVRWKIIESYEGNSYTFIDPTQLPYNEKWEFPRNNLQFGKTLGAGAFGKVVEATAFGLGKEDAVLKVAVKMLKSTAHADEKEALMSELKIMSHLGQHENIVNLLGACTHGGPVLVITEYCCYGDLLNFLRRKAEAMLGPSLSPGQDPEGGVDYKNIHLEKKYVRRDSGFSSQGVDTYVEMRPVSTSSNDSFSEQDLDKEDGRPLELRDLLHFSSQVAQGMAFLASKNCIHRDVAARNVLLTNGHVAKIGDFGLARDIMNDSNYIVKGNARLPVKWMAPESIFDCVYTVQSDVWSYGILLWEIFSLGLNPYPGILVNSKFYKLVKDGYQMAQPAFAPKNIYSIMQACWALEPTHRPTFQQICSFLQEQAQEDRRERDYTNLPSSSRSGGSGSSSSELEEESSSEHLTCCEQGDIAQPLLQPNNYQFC", "outline": "as §1"}, "ADCK4": {"molecular_target": "T9, ADCK4 (Homo sapiens, UniProt Q96D53)", "T9 construct": "host or cells: E. coli (BL21-derived), T7 phage lysate", "outline": "as §1"}, "BMX": {"molecular_target": "T10, BMX (Homo sapiens, UniProt P51813)", "T10 construct": "host or cells: E. coli host derived from BL21", "outline": "as §1"}, "DRAK2": {"molecular_target": "T11, DRAK2 (Homo sapiens, UniProt O94768)", "T11 construct": "purchased Ambit Biosciences Corp (KinomeScan); host or cells: T7 phage in E. coli host derived from BL21", "outline": "as §1"}, "NEK2": {"molecular_target": "T12, NEK2 (Homo sapiens, UniProt P51955)", "T12 construct": "host or cells: T7 phage grown in E. coli host derived from BL21", "outline": "as §1"}, "RIOK1": {"molecular_target": "T13, RIOK1 (Homo sapiens, UniProt Q9BRS2)", "T13 construct": "host or cells: E. coli host derived from BL21, T7 phage display", "outline": "as §1"}, "EGFR(G719C)": {"molecular_target": "T14, EGFR(G719C) (Homo sapiens, UniProt P00533, G719C)", "T14 construct": "purchased Ambit Biosciences Corp (KinomeScan); host or cells: T7 phage in E. coli host derived from BL21", "outline": "as §1"}, "TIE1": {"molecular_target": "T15, TIE1 (Homo sapiens, UniProt P35590)", "T15 construct": "host or cells: T7 phage grown in E. coli (BL21-derived)", "T15 sequence (P35590 22-1138)": "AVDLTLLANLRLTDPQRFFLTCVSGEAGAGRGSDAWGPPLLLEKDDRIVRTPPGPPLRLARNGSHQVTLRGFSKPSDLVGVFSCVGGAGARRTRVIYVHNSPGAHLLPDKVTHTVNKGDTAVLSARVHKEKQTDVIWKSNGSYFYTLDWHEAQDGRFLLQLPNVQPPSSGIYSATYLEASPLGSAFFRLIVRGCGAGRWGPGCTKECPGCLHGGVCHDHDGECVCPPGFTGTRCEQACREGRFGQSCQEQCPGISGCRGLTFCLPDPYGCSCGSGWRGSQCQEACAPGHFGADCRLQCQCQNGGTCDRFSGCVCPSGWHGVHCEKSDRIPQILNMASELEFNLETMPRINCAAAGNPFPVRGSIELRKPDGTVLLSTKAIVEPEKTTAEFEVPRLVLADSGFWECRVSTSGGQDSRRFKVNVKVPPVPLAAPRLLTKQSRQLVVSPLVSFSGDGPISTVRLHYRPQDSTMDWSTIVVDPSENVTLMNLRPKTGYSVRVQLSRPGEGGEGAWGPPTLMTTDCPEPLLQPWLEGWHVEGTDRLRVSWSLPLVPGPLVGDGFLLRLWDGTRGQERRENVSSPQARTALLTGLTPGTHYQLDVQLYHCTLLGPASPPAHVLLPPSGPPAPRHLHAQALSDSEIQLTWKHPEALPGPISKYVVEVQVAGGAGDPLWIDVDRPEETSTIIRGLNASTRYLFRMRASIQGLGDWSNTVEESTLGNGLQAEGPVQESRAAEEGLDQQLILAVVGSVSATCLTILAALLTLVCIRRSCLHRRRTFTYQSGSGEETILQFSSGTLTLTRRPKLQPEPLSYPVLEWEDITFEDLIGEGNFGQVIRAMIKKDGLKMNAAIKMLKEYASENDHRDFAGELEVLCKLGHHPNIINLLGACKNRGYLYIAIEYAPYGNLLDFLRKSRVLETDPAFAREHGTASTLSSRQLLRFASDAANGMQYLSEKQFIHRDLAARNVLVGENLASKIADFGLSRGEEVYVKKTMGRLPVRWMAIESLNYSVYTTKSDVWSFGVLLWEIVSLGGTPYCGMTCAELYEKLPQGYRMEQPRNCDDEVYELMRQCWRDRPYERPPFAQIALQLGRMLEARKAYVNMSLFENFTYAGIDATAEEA", "outline": "as §1"}, "MAP4K3": {"molecular_target": "T16, MAP4K3 (Homo sapiens, UniProt Q8IVH8)", "T16 construct": "host or cells: E. coli host derived from the BL21 strain, infected with T7 phage", "outline": "as §1"}, "CAMKK1": {"molecular_target": "T17, CAMKK1 (Homo sapiens, UniProt Q8N5S9)", "T17 construct": "host or cells: T7 phage in E. coli host derived from BL21", "outline": "as §1"}, "PAK3": {"molecular_target": "T18, PAK3 (Homo sapiens, UniProt O75914)", "T18 construct": "host or cells: E. coli host derived from BL21, infected with T7 phage", "outline": "as §1"}, "ERK2": {"molecular_target": "T19, ERK2 (Homo sapiens, UniProt P28482)", "T19 construct": "purchased Ambit Biosciences Corp; host or cells: T7 phage in E. coli host derived from BL21", "outline": "as §1"}, "CAMKK2": {"molecular_target": "T20, CAMKK2 (Homo sapiens, UniProt Q96RR4)", "T20 construct": "host or cells: T7 phage in E. coli host derived from BL21", "outline": "as §1"}, "[2]": {"molecular_target": "T21, RPS6KA6(Kin.Dom.-2-C-terminal) (Homo sapiens, UniProt Q9UK32)", "T21 construct": "RPS6KA6(Kin.Dom.-2-C-terminal); host or cells: T7 phage grown in E. coli (BL21-derived)", "T21 sequence (Q9UK32 426-683 limits assumed)": "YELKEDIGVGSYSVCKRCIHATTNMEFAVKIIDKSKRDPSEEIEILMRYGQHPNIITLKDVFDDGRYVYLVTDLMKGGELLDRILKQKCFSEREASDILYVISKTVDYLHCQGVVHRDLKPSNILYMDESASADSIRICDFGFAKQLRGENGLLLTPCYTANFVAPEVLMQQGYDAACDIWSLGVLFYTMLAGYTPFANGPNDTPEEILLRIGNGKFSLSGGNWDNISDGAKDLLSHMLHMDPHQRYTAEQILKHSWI", "outline": "as §1"}, "EGFR": {"molecular_target": "T22, EGFR (Homo sapiens, UniProt P00533)", "T22 construct": "purchased Ambit Biosciences Corp (KinomeScan); host or cells: T7 phage in E. coli host derived from BL21", "outline": "as §1"}, "DCAMKL1": {"molecular_target": "T23, DCAMKL1 (Homo sapiens, UniProt O15075)", "T23 construct": "purchased Ambit Biosciences Corp (KinomeScan); host or cells: T7 phage in E. coli host derived from BL21", "outline": "as §1"}, "INSR": {"molecular_target": "T24, INSR (Homo sapiens, UniProt P06213)", "T24 construct": "host or cells: T7 phage grown in E. coli host derived from BL21", "outline": "as §1"}, "MAPKAPK5": {"molecular_target": "T25, MAPKAPK5 (Homo sapiens, UniProt Q8IW41)", "T25 construct": "host or cells: E. coli host derived from the BL21 strain, infected with T7 phage", "outline": "as §1"}, "KIT(D816V)": {"molecular_target": "T26, KIT(D816V) (Homo sapiens, UniProt P10721, D816V)", "T26 construct": "host or cells: T7 phage grown in E. coli host derived from BL21", "T26 sequence (P10721 26-976 D816V)": "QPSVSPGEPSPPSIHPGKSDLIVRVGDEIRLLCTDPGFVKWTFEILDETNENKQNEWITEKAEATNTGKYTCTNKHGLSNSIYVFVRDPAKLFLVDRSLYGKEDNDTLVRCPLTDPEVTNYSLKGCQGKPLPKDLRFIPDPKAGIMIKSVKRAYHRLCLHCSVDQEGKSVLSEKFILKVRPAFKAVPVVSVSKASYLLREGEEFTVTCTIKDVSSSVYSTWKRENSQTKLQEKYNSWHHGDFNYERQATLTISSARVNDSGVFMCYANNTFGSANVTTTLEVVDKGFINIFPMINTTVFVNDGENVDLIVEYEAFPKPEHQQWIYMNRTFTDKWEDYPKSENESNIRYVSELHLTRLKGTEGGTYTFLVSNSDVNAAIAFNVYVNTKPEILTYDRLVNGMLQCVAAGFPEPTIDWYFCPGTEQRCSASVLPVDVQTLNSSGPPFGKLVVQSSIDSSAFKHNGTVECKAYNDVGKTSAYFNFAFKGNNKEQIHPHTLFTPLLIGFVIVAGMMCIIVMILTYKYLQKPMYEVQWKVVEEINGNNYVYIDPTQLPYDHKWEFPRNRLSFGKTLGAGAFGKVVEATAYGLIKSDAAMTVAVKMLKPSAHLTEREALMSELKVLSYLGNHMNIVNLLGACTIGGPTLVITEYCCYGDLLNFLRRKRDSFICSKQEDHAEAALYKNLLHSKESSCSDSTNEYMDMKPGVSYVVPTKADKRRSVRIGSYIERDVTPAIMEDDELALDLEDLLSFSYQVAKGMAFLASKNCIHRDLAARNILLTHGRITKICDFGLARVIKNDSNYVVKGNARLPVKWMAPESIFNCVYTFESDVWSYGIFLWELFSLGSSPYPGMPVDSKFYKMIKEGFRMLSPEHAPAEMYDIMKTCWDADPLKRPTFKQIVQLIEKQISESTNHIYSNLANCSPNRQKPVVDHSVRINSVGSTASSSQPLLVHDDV", "outline": "as §1"}, "MEK2": {"molecular_target": "T27, MEK2 (Homo sapiens, UniProt P36507)", "T27 construct": "host or cells: E. coli host derived from the BL21 strain, infected with T7 phage", "outline": "as §1"}, "PKAC-beta": {"molecular_target": "T28, PKAC-beta (Homo sapiens, UniProt P22694)", "T28 construct": "host or cells: T7 phage in E. coli host derived from BL21", "outline": "as §1"}, "LATS1": {"molecular_target": "T29, LATS1 (Homo sapiens, UniProt O95835)", "T29 construct": "host or cells: T7 phage grown in E. coli host derived from BL21", "outline": "as §1"}, "TNK1": {"molecular_target": "T30, TNK1 (Homo sapiens, UniProt Q13470)", "T30 construct": "host or cells: E. coli host derived from BL21, T7 phage", "outline": "as §1"}, "EPHA5": {"molecular_target": "T31, EPHA5 (Homo sapiens, UniProt P54756)", "T31 construct": "purchased Ambit Biosciences Corp; host or cells: T7 phage in E. coli host derived from BL21", "T31 sequence (P54756 25-1037)": "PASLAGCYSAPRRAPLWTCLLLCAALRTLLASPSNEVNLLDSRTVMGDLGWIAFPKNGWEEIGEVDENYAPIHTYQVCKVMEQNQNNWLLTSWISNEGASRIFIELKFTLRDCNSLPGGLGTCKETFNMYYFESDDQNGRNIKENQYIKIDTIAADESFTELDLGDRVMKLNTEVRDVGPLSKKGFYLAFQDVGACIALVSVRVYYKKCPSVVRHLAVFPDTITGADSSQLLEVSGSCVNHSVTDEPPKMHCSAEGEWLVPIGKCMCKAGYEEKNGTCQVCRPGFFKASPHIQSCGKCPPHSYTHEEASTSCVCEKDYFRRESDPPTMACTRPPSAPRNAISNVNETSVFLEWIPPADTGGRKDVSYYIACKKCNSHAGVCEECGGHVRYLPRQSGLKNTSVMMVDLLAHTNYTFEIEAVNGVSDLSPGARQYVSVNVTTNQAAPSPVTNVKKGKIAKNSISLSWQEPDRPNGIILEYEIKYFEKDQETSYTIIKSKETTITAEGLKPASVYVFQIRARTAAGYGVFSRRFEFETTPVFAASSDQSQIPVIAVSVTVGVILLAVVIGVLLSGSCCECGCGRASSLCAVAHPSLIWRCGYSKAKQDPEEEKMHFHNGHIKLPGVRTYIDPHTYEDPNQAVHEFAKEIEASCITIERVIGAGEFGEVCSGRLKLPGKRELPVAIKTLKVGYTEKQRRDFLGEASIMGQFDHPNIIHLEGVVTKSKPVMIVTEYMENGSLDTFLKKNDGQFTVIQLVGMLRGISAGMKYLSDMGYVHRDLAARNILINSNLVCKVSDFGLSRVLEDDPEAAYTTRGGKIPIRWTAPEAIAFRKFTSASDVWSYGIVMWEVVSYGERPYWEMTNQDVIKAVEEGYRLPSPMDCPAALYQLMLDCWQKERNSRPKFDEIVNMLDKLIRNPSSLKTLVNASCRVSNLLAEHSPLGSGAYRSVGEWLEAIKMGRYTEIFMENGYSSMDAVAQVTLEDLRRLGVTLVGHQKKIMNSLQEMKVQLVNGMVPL", "outline": "as §1"}, "RIPK1": {"molecular_target": "T32, RIPK1 (Homo sapiens, UniProt Q13546)", "T32 construct": "host or cells: E. coli host derived from BL21, T7 phage display", "outline": "as §1"}}, "data": [{"smiles": "C#Cc1cccc(Nc2ncnc3cc(OC)c(OCCCN4CCOCC4)cc23)c1", "note": "[NRC-2694, N-(3-ethynylphenyl)-7-methoxy-6-[3-(4-morpholinyl)propoxy]-4-quinazolinamine]", "values": [{"measurement": "remaining binding at 10 µM", "setting": "CAMK2D", "result": 35, "unit": "%"}, {"measurement": "remaining binding at 10 µM", "setting": "PRKCE", "result": 65, "unit": "%"}, {"measurement": "remaining binding at 10 µM", "setting": "AMPK-alpha1", "result": 50, "unit": "%"}, {"measurement": "remaining binding at 10 µM", "setting": "FGFR4", "result": 69, "unit": "%"}, {"measurement": "remaining binding at 10 µM", "setting": "[1]", "result": 81, "unit": "%"}, {"measurement": "remaining binding at 10 µM", "setting": "ROCK2", "result": 38, "unit": "%"}, {"measurement": "remaining binding at 10 µM", "setting": "TAOK3", "result": 76, "unit": "%"}, {"measurement": "remaining binding at 10 µM", "setting": "CSF1R", "result": 50, "unit": "%"}, {"measurement": "remaining binding at 10 µM", "setting": "ADCK4", "result": 14, "unit": "%"}, {"measurement": "remaining binding at 10 µM", "setting": "BMX", "result": 73, "unit": "%"}, {"measurement": "remaining binding at 10 µM", "setting": "DRAK2", "result": 58, "unit": "%"}, {"measurement": "remaining binding at 10 µM", "setting": "NEK2", "result": 63, "unit": "%"}, {"measurement": "remaining binding at 10 µM", "setting": "RIOK1", "result": 36, "unit": "%"}, {"measurement": "remaining binding at 10 µM", "setting": "EGFR(G719C)", "result": 0, "unit": "%"}, {"measurement": "remaining binding at 10 µM", "setting": "TIE1", "result": 52, "unit": "%"}, {"measurement": "remaining binding at 10 µM", "setting": "MAP4K3", "result": 52, "unit": "%"}, {"measurement": "remaining binding at 10 µM", "setting": "CAMKK1", "result": 71, "unit": "%"}, {"measurement": "remaining binding at 10 µM", "setting": "PAK3", "result": 55, "unit": "%"}, {"measurement": "remaining binding at 10 µM", "setting": "ERK2", "result": 100, "unit": "%"}, {"measurement": "remaining binding at 10 µM", "setting": "CAMKK2", "result": 60, "unit": "%"}, {"measurement": "remaining binding at 10 µM", "setting": "[2]", "result": 55, "unit": "%"}, {"measurement": "remaining binding at 10 µM", "setting": "EGFR", "result": 0, "unit": "%"}, {"measurement": "remaining binding at 10 µM", "setting": "DCAMKL1", "result": 92, "unit": "%"}, {"measurement": "remaining binding at 10 µM", "setting": "INSR", "result": 90, "unit": "%"}, {"measurement": "remaining binding at 10 µM", "setting": "MAPKAPK5", "result": 79, "unit": "%"}, {"measurement": "remaining binding at 10 µM", "setting": "KIT(D816V)", "result": 17, "unit": "%"}, {"measurement": "remaining binding at 10 µM", "setting": "MEK2", "result": 44, "unit": "%"}, {"measurement": "remaining binding at 10 µM", "setting": "PKAC-beta", "result": 88, "unit": "%"}, {"measurement": "remaining binding at 10 µM", "setting": "LATS1", "result": 91, "unit": "%"}, {"measurement": "remaining binding at 10 µM", "setting": "TNK1", "result": 41, "unit": "%"}, {"measurement": "remaining binding at 10 µM", "setting": "EPHA5", "result": 86, "unit": "%"}, {"measurement": "remaining binding at 10 µM", "setting": "RIPK1", "result": 100, "unit": "%"}]}]}
